Experimental data published in PubChem BioAssay AID2060496 (Molecular Pharmacology Branch, DTP, NCI, 2025).

System: 276233-004-R-J1-PDC complex spheroid viability
Experiment: Anticancer human tumor 276233-004-R-J1-PDC patient-derived colon adenocarcinoma cell line growth inhibition [GQUAD]
Conditions: for IC50: curve of first compound; for viability, T/C: stronger effect = lower value
Summary of the method: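 Tumor cells were grown as complex spheroids with HUVEC endothelial cells and mesenchymal stem cells as stroma. G-quadruplex stabilizers were combined with targeted agents over half-log dilutions from near the clinical Cmax, or from 10 microM.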

[1] = second compound 0.0316 µM, first compound 0.0316 µM
[2] = second compound 0.0316 µM, first compound 0.1 µM
[3] = second compound 0.0316 µM, first compound 0.316 µM
[4] = second compound 0.0316 µM, first compound 1 µM
[5] = second compound 0.0316 µM, first compound 3.16 µM
[6] = second compound 0.0316 µM, first compound 10 µM
[7] = second compound 0.1 µM, first compound 0.0316 µM
[8] = second compound 0.1 µM, first compound 0.1 µM
[9] = second compound 0.1 µM, first compound 0.316 µM
[10] = second compound 0.1 µM, first compound 1 µM
[11] = second compound 0.1 µM, first compound 3.16 µM
[12] = second compound 0.1 µM, first compound 10 µM
[13] = second compound 0.316 µM, first compound 0.0316 µM
[14] = second compound 0.316 µM, first compound 0.1 µM
[15] = second compound 0.316 µM, first compound 0.316 µM
[16] = second compound 0.316 µM, first compound 1 µM
[17] = second compound 0.316 µM, first compound 3.16 µM
[18] = second compound 0.316 µM, first compound 10 µM
[19] = second compound 1 µM, first compound 0.0316 µM
[20] = second compound 1 µM, first compound 0.1 µM
[21] = second compound 1 µM, first compound 0.316 µM
[22] = second compound 1 µM, first compound 1 µM
[23] = second compound 1 µM, first compound 3.16 µM
[24] = second compound 1 µM, first compound 10 µM
[25] = second compound 3.16 µM, first compound 0.0316 µM
[26] = second compound 3.16 µM, first compound 0.1 µM
[27] = second compound 3.16 µM, first compound 0.316 µM
[28] = second compound 3.16 µM, first compound 1 µM
[29] = second compound 3.16 µM, first compound 3.16 µM
[30] = second compound 3.16 µM, first compound 10 µM
[31] = second compound 10 µM, first compound 0.0316 µM
[32] = second compound 10 µM, first compound 0.1 µM
[33] = second compound 10 µM, first compound 0.316 µM
[34] = second compound 10 µM, first compound 1 µM
[35] = second compound 10 µM, first compound 3.16 µM
[36] = second compound 10 µM, first compound 10 µM
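Also: spheroids exposed to drugs for seven days.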
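For viability, T/C in this document: 100% = DMSO vehicle control viability.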

## C=CCn1c(=O)c2cnc(Nc3ccc(N4CCN(C)CC4)cc3)nc2n1-c1cccc(C(C)(C)O)n1 + Cc1[nH]c2ccc(F)cc2c1-c1nc2c3cccnc3c3ncccc3c2[nH]1
Second compound 0.0316 µM
  IC50: > 10000 nM
Second compound 0.1 µM
  IC50: > 10000 nM
Second compound 0.316 µM
  IC50: > 10000 nM
Second compound 1 µM
  IC50: 104 nM
Second compound 3.16 µM
  IC50: < 31.6 nM
Second compound 10 µM
  IC50: < 31.6 nM
[1]
  viability, T/C: 98.8%
[2]
  viability, T/C: 86.5%
[3]
  viability, T/C: 71.4%
[4]
  viability, T/C: 67.8%
[5]
  viability, T/C: 66.8%
[6]
  viability, T/C: 66.6%
[7]
  viability, T/C: 79.6%
[8]
  viability, T/C: 79.5%
[9]
  viability, T/C: 64.5%
[10]
  viability, T/C: 48.3%
[11]
  viability, T/C: 61%
[12]
  viability, T/C: 52.7%
[13]
  viability, T/C: 64%
[14]
  viability, T/C: 58.4%
[15]
  viability, T/C: 60.2%
[16]
  viability, T/C: 41.1%
[17]
  viability, T/C: 56.9%
[18]
  viability, T/C: 61.4%
[19]
  viability, T/C: 53.8%
[20]
  viability, T/C: 53.9%
[21]
  viability, T/C: 48%
[22]
  viability, T/C: 36.4%
[23]
  viability, T/C: 51.7%
[24]
  viability, T/C: 50.4%
[25]
  viability, T/C: 16.3%
[26]
  viability, T/C: 14%
[27]
  viability, T/C: 28.1%
[28]
  viability, T/C: 18.1%
[29]
  viability, T/C: 20.2%
[30]
  viability, T/C: 23.9%
[31]
  viability, T/C: 36.8%
[32]
  viability, T/C: 35.8%
[33]
  viability, T/C: 32.8%
[34]
  viability, T/C: 26.7%
[35]
  viability, T/C: 30.3%
[36]
  viability, T/C: 35.4%

## Cc1[nH]c2ccccc2c1CCNCc1ccc(/C=C/C(=O)NO)cc1 + Cc1cnc(CNC(=O)c2c(=O)c3ccc(N4CCCN(C)CC4)nc3n3c2sc2ccccc23)cn1
Second compound 0.0316 µM
  IC50: 211 nM
Second compound 0.1 µM
  IC50: 144 nM
Second compound 0.316 µM
  IC50: 127 nM
Second compound 1 µM
  IC50: 62.4 nM
Second compound 3.16 µM
  IC50: 46.9 nM
Second compound 10 µM
  IC50: 40.5 nM
Second compound 0.0316 µM, first compound 0.000999 µM
  viability, T/C: 90.4%
Second compound 0.0316 µM, first compound 0.00316 µM
  viability, T/C: 93%
Second compound 0.0316 µM, first compound 0.00999 µM
  viability, T/C: 87.7%
[1]
  viability, T/C: 82.3%
Second compound 0.0316 µM, first compound 0.0999 µM
  viability, T/C: 75.7%
[3]
  viability, T/C: 36.6%
Second compound 0.1 µM, first compound 0.000999 µM
  viability, T/C: 80.1%
Second compound 0.1 µM, first compound 0.00316 µM
  viability, T/C: 74.1%
Second compound 0.1 µM, first compound 0.00999 µM
  viability, T/C: 92.7%
[7]
  viability, T/C: 101%
Second compound 0.1 µM, first compound 0.0999 µM
  viability, T/C: 57.8%
[9]
  viability, T/C: 33.2%
Second compound 0.316 µM, first compound 0.000999 µM
  viability, T/C: 88%
Second compound 0.316 µM, first compound 0.00316 µM
  viability, T/C: 99.1%
Second compound 0.316 µM, first compound 0.00999 µM
  viability, T/C: 102%
[13]
  viability, T/C: 74.3%
Second compound 0.316 µM, first compound 0.0999 µM
  viability, T/C: 57.9%
[15]
  viability, T/C: 29.6%
Second compound 1 µM, first compound 0.000999 µM
  viability, T/C: 71.5%
Second compound 1 µM, first compound 0.00316 µM
  viability, T/C: 92%
Second compound 1 µM, first compound 0.00999 µM
  viability, T/C: 88.1%
[19]
  viability, T/C: 70.9%
Second compound 1 µM, first compound 0.0999 µM
  viability, T/C: 35.2%
[21]
  viability, T/C: 19.1%
Second compound 3.16 µM, first compound 0.000999 µM
  viability, T/C: 71.6%
Second compound 3.16 µM, first compound 0.00316 µM
  viability, T/C: 85.8%
Second compound 3.16 µM, first compound 0.00999 µM
  viability, T/C: 68%
[25]
  viability, T/C: 62.3%
Second compound 3.16 µM, first compound 0.0999 µM
  viability, T/C: 29.2%
[27]
  viability, T/C: 9.8%
Second compound 10 µM, first compound 0.000999 µM
  viability, T/C: 70.9%
Second compound 10 µM, first compound 0.00316 µM
  viability, T/C: 60.8%
Second compound 10 µM, first compound 0.00999 µM
  viability, T/C: 73.2%
[31]
  viability, T/C: 54.7%
Second compound 10 µM, first compound 0.0999 µM
  viability, T/C: 26.4%
[33]
  viability, T/C: 4.45%

## COc1cc(C2c3cc4c(cc3C(OC3OC5COC(C)OC5C(O)C3O)C3COC(=O)C23)OCO4)cc(OC)c1O (stereo not drawn) + CN(C)c1ccc(Nc2c3ccc(NC(=O)CCN4CCCC4)cc3nc3cc(NC(=O)CCN4CCCC4)ccc23)cc1
Second compound 0.0316 µM
  IC50: > 10000 nM
Second compound 0.1 µM
  IC50: > 10000 nM
Second compound 0.316 µM
  IC50: > 10000 nM
Second compound 1 µM
  IC50: > 10000 nM
Second compound 3.16 µM
  IC50: > 10000 nM
Second compound 10 µM
  IC50: 3310 nM
[1]
  viability, T/C: 95.7%
[2]
  viability, T/C: 106%
[3]
  viability, T/C: 98.9%
[4]
  viability, T/C: 90.4%
[5]
  viability, T/C: 87%
[6]
  viability, T/C: 98.8%
[7]
  viability, T/C: 75.8%
[8]
  viability, T/C: 88.2%
[9]
  viability, T/C: 92.7%
[10]
  viability, T/C: 82.3%
[11]
  viability, T/C: 77.7%
[12]
  viability, T/C: 78.4%
[13]
  viability, T/C: 60.1%
[14]
  viability, T/C: 69%
[15]
  viability, T/C: 55.5%
[16]
  viability, T/C: 69.4%
[17]
  viability, T/C: 61.2%
[18]
  viability, T/C: 61.3%
[19]
  viability, T/C: 56.6%
[20]
  viability, T/C: 45.2%
[21]
  viability, T/C: 58.5%
[22]
  viability, T/C: 62.3%
[23]
  viability, T/C: 55.4%
[24]
  viability, T/C: 55%
[25]
  viability, T/C: 54.8%
[26]
  viability, T/C: 49%
[27]
  viability, T/C: 52.2%
[28]
  viability, T/C: 56.5%
[29]
  viability, T/C: 61.5%
[30]
  viability, T/C: 54.6%
[31]
  viability, T/C: 46.8%
[32]
  viability, T/C: 59.5%
[33]
  viability, T/C: 47.3%
[34]
  viability, T/C: 57.4%
[35]
  viability, T/C: 45.7%
[36]
  viability, T/C: 48.5%

## Cc1cccc(N(C)C(=O)C2C(O)CCN2c2nc(C)cc(C(F)(F)F)c2C#N)c1 (stereo not drawn) + CN(C)c1ccc(Nc2c3ccc(NC(=O)CCN4CCCC4)cc3nc3cc(NC(=O)CCN4CCCC4)ccc23)cc1
Second compound 0.0316 µM
  IC50: > 10000 nM
Second compound 0.1 µM
  IC50: > 10000 nM
Second compound 0.316 µM
  IC50: > 10000 nM
Second compound 1 µM
  IC50: > 10000 nM
Second compound 3.16 µM
  IC50: > 10000 nM
Second compound 10 µM
  IC50: < 31.6 nM
[1]
  viability, T/C: 77.3%
[2]
  viability, T/C: 74.1%
[3]
  viability, T/C: 86.7%
[4]
  viability, T/C: 97.1%
[5]
  viability, T/C: 98.1%
[6]
  viability, T/C: 101%
[7]
  viability, T/C: 96.8%
[8]
  viability, T/C: 98.1%
[9]
  viability, T/C: 89.5%
[10]
  viability, T/C: 89.2%
[11]
  viability, T/C: 86.5%
[12]
  viability, T/C: 96%
[13]
  viability, T/C: 71.2%
[14]
  viability, T/C: 75.4%
[15]
  viability, T/C: 73.2%
[16]
  viability, T/C: 50.7%
[17]
  viability, T/C: 60.5%
[18]
  viability, T/C: 68.1%
[19]
  viability, T/C: 57.3%
[20]
  viability, T/C: 47.1%
[21]
  viability, T/C: 63.1%
[22]
  viability, T/C: 57.6%
[23]
  viability, T/C: 51.2%
[24]
  viability, T/C: 64.9%
[25]
  viability, T/C: 51%
[26]
  viability, T/C: 49.3%
[27]
  viability, T/C: 50.6%
[28]
  viability, T/C: 55.9%
[29]
  viability, T/C: 65.8%
[30]
  viability, T/C: 68.7%
[31]
  viability, T/C: 39.7%
[32]
  viability, T/C: 51.5%
[33]
  viability, T/C: 41.2%
[34]
  viability, T/C: 72.6%
[35]
  viability, T/C: 63.1%
[36]
  viability, T/C: 54.8%
